CCc1ccc(CCOc2ccc(CC3SC(=O)NC3=O)cc2)nc1.Cl (stereo not drawn)
solubility (mole fraction)
Settings | in DMF | in acetic acid | in ethanol | in methanol | in n-propanol
278.15 K | 0.0161 | – | 0.000535 | 0.004 | 0.000325
283.15 K | 0.017 | – | – | 0.00494 | 0.000395
284.15 K | – | – | 0.000626 | – | –
288.15 K | 0.0183 | 0.00108 | 0.000723 | 0.00615 | 0.000456
293.15 K | 0.0194 | 0.0015 | 0.000879 | 0.00738 | 0.000522
298.15 K | 0.021 | 0.00203 | 0.00103 | 0.0086 | 0.00063
303.15 K | 0.0227 | 0.00276 | 0.00121 | 0.0101 | 0.00075
308.15 K | 0.0247 | 0.0038 | 0.00147 | 0.0121 | 0.00088
313.15 K | 0.0269 | 0.00558 | 0.00178 | 0.0144 | 0.00104
318.15 K | 0.0292 | 0.00804 | 0.00222 | 0.0173 | 0.00127
323.15 K | 0.0323 | 0.0118 | 0.00266 | 0.0211 | 0.00149

Source: BigSolDB 2.1
